Consider 8 compounds from BindingDB's records for patent WO2022104345 (Genentech, 2022).

pIC50: −log10 of the molar value. A value given as a limit tells only on which side of the number the result lay.

Sequence of von Hippel-Lindau disease tumor suppressor (P40337 whole entry, the tested form may be a part): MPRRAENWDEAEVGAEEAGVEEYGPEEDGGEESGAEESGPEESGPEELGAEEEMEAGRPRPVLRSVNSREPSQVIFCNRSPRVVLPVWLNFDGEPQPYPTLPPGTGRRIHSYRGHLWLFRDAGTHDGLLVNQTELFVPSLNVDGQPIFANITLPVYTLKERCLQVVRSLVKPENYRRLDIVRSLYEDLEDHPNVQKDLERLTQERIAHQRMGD

The target of the test is von Hippel-Lindau disease tumor suppressor (Homo sapiens, UniProt P40337). As to the kind of experiment: VHL HEK-293 BRET Assay. As for the experimental part:
The VHL NanoBRET Target Engagement Assay analyzes the apparent affinity of test compounds for VHL in cells by competitive displacement of a VHL NanoBRET tracer reversibly bound to a NanoLuc VHL fusion protein stably expressed in the cells.[0488] Test compounds were transferred to the assay plate (384 Well White Non-Binding Corning Assay Plates (Corning-3574)) using an Echo 555 Liquid Handler (Labcyte) in 2.5 nL increments and, as appropriate, intermediate stock concentrations of compounds, in order to prepare a titration series.50 nL of control compound (10mM; parental unlabeled VHL antagonist; see structure below) and 50 nL of DMSO (negative control) were dispensed into the appropriate control wells. DMSO was backfilled to a final volume of 50 nL as required.50nl per well of 1 mM VHL NanoBRET Tracer in DMSO (NanoBRETTM Tracer-PEG2-590 (see structure below)) was transferred into each well using an Echo 555 (ultimately yielding a final concentration of 1uM). HEK 293 RT VHL-NanoLuc stable cells were cultured in DMEM High Glucose with Pyruvate, 10% fetal bovine serum, 2 mg/mL of Geneticin Selective Antibiotic (50 mg/ml) and 2 mM HEPES (1 M). Cells were seeded in Opti-MEM (Life Technologies-11058-021), 1.7 × 10^5 cells/mL, 40 ^l per well into the assay plate, centrifuged at 500 rpm for 30 seconds and incubated for 2 hours. Max Signal control wells consisted of DMSO only treated wells. Minimum Signal control wells contained of 10 uM parental unlabeled VHL antagonist (control compound see structure below). 3X Complete Substrate plus Inhibitor Solution was prepared in Opti-MEM (consists of a 1:166 dilution of NanoBRET Nano-Glo Substrate plus a 1:500 dilution of Extracellular NanoLuc Inhibitor in Opti-MEM), and 20 ul was dispensed into each well of the 384-well plate and centrifuged at 1000 rpm for 1 minute, then incubated for 2 minutes at room temperature. Background Signal control wells were prepared without tracer for background correction steps.[0489] Plates were read using a PerkinElmer Envision Reader (model 2104-0020) equipped with Luminescence option (Mirror: BRET2 Enh (PE Barcode 659), Emission Filter: Omega 610LP (Barcode 504), 2nd Emission Filter: Umbelliferone 460 (Barcode 207), Measurement height: 6.5 mm, Measurement time: 1s). The raw BRET ratio values were calculated by dividing the acceptor emission value (610 nm) by the donor emission value (460nm) for each sample. To correct for background, the BRET ratio in the absence of tracer (average of no-tracer control samples) was subtracted from the BRET ratio of each sample. Raw BRET units were converted to milliBRET units (mBU) by multiplying each raw BRET value by 1,000. The normalized NanoBRET signal was calculated relative to the Max Signal control wells (DMSO treated control wells) and the Minimum Signal control wells. Percentage inhibition was calculated relative to the Minimum Signal control and Maximum Signal control wells. IC50 values were derived by four parameter curve fitting using the Robust method.
`CNC(=O)[C@@H]1C[C@@H](O)CN1C(=O)[C@H](C(C)C)n1cc(C2CC2)nn1` [WO2022104345, Compound 11] showed a pIC50 of 5.52.

Take `CNC(=O)[C@@H]1C[C@@H](O)CN1C(=O)[C@@H](C(C)C)n1cc(C2CC2)nn1` [WO2022104345, Compound 12]: the pIC50 was below 4.00. In the case of `CNC(=O)[C@@H]1C[C@@H](OC(C)=O)CN1C(=O)[C@H](n1cc(C2CC2)nn1)C(C)(C)C` [WO2022104345, Compound 13], the pIC50 is 4.20. `CNC(=O)[C@@H]1C[C@@H](O)CN1C(=O)[C@H](C(C)C)n1cc(C2(C)CC2)nn1` [WO2022104345, Compound 21] had a pIC50 of 5.92.

Turning to `CNC(=O)[C@@H]1C[C@@H](O)CN1C(=O)C(=C(C)C)n1cc(C2CC2)nn1` [WO2022104345, Compound 32], the pIC50 was 5.32. The compound `CNC(=O)[C@@H]1C[C@@H](O)CN1C(=O)[C@H](C(C)C)n1cc(-c2cncs2)nn1` [WO2022104345, Compound 41] gave a pIC50 of 6.05. `CNC(=O)[C@@H]1C[C@@H](O)CN1C(=O)[C@H](C1CCNCC1)n1cc(C2CC2)nn1` [WO2022104345, Example S7] gave a pIC50 below 4.00. For the compound `CNC(=O)[C@@H]1C[C@@H](O)CN1C(=O)[C@H](C1CCN(C)CC1)n1cc(C2CC2)nn1` [WO2022104345, Example S8], the pIC50 is below 4.00.
